Laboratory results published in US20110182949A1, “STABILIZED TRANSDERMAL DRUG DELIVERY SYSTEM” (priority 2008, published 2011).

Test: Glass transition temperature (DSC)
Format: physicochemical
Conditions: amorphous drug, dispersed in patch or undispersed
Procedure: Example 1: To a glass jar Plastone 29/32 (12 g) and ethanol (7.56 g) were added. The admixture was mixed with a spatula, heated and sonicated in a water bath at 45° C. until a viscous solution was formed. To the solution was added scopolamine base (4.00 g). The admixture was mixed with a spatula, heated, sonicated and swirled until a clear viscous solution was formed. After the solution was cooled for a while, Dow Corning silicone adhesive 7-4302 (40.82 g, 60% solid) and ethyl acetate (8.34 g) were added. The material was quickly mixed at high shear to provide a cream-like uniform suspension. After air bubbles were removed by rolling overnight, the suspension was coated to a release liner, dried at room temperature for 5 minutes, in an oven set at 40° C. for 5 minutes and in an oven set at 85° C. for 5 minutes to form a thin layer of adhesive on release liner. A backing film Mediflex® 1502 was laminated to the adhesive side. Individual patches were die-cut and pouched.

Row | SMILES | glass transition temperature (Tg)
1 | O=C1CC[C@@]2(O)[C@H]3Cc4ccc(O)c5c4[C@@]2(CCN3CC2CC2)[C@H]1O5 [naltrexone] | 79.5 °C
2 | CN1[C@@H]2C[C@@H](OC(=O)[C@H](CO)c3ccccc3)C[C@H]1[C@@H]1O[C@@H]12 [undispersed amorphous scopolamine, scopolamine] | about 10 °C
